The values that follow come from US12540164B2, “Peptides for treatment and prevention of nonalcoholic fatty liver disease and fibrosis” (UNIVERSITE DE STRASBOURG, priority 2017, dated 2026).

Ends that are not written are not given here.

This test is described as follows: STAM model of non-alcoholic steatohepatitis: Sirius red staining, fibrosis area. Particulars: STAM NASH mice. Format: in vivo. On the procedure: NASH was induced in 12 male mice by a single subcutaneous injection of 200 μg streptozotocin (STZ, Sigma-Aldrich, USA) solution 2 days after birth and feeding with high fat diet (HFD, 57 kcal % fat, Cat #HFD32, CLEA Japan, Inc., Japan) after 4 weeks of age. The peptide was administered subcutaneously in the adipose tissue in a volume of […] per mouse. The peptide was administered at a dose of 25 microgram (μg) per mouse once weekly. To visualize collagen deposition, Bouin's fixed liver sections were stained using picro-Sirius red solution (Waldeck, Germany). For quantitative analysis of fibrosis area, bright field images of Sirius red-stained sections were captured around the central vein using a digital camera (DFC295; Leica, Germany) at 200-fold magnification, and the positive areas in 5 fields/section were measured using ImageJ software (National Institute of Health, USA). Six NASH mice were subcutaneously in the adipose tissue administered vehicle supplemented with ADPIF peptide at a dose of […] per mouse once weekly from 4 to 9 weeks of age.

Turning to “VECTTREKEVLASLDKAAFLTQLHS (not fully specified (bridges)) [ADPIF, R and S carry the stapling, preferably 2-(7-octenyl)arginine and 2-(4-pentenyl)serine]”, the “Sirius red-positive area (mean ± SD)” value (25 μg per mouse SC once weekly 4-9 wks of age, sacrifice 9 wks, n = 6) is listed as 0.62 ± 0.17%. Besides, under “25 μg per mouse SC once weekly 4-9 wks, Student's t-test”, the “fibrosis area (Sirius red-positive area) compared with the Vehicle group” value is given as “significant decrease”.
